# Data as given in ChEMBL document CHEMBL5543121, “Drug Repurposing of ACT001 to Discover Novel Promising Sulfide Prodrugs with Improved Safety and Potent Activity for Neutrophil-Mediated Antifungal Immunotherapy” (J Med Chem, 2024).
# Calls of active or inactive are those of the source. The calls are words filed in the database; no cut-off is given here.
# Experiments:
# [1] = Inhibition of fungal curdlan induced PD-L1 expression in mouse neutrophils at 40 uM relative to control; type: functional, Neutrophil; conditions: for inhibition at 40 µM: Mus musculus, Neutrophil
# [2] = (§1) Cytotoxicity against mouse neutrophils assessed as cell viability at 40 uM relative to control; type: toxicity, cell-based, Neutrophil; conditions: mouse neutrophils, read-out: Activity
# [3] = tested on: Candida albicans; experiment: Induction of neutrophil-mediated antifungal immunity against Candida albicans SC5314 infected in mouse assessed as inhibition of CXCL2 protein expression in bone marrow at 100 mg/kg, po administered once a day for 3 days by ELISA; type: functional, organism-based; conditions: time 3.0 day
# [4] = tested on: Neutrophil; experiment: Induction of apoptosis in mouse neutrophils assessed as late apoptotic cells at 20 uM incubated for 16 hrs by Annexin V-FITC/PI staining based flow cytometry analysis (reference value: 24.1%); type: toxicity, cell-based
# [5] = tested on: Candida albicans; experiment: Induction of neutrophil-mediated antifungal immunity against Candida albicans SC5314 infected in mouse assessed as reduction in PD-L1 positive Ly6G positive neutrophils in bone marrow at 100 mg/kg, po administered once a day for 3 days by flow cytometry analysis; type: functional, organism-based; conditions: time 3.0 day
# [6] = tested on: Candida albicans; experiment: Induction of neutrophil-mediated antifungal immunity against Candida albicans SC5314 infected in mouse assessed as reduction in fungal clusters in kidney at 100 mg/kg, po administered once a day for 3 days by PAS staining based analysis; type: functional, organism-based; conditions: time 3.0 day
# [7] = Inhibition of fungal curdlan induced PD-L1 expression in mouse neutrophils assessed as reduction in PD-L1 positive Ly6G positive neutrophils incubated for 16 hrs by flow cytometry analysis; type: functional, cell-based; conditions: Neutrophil
# [8] = tested on: Neutrophil; experiment: Induction of apoptosis in mouse neutrophils assessed as late apoptotic cells at 40 uM incubated for 16 hrs by Annexin V-FITC/PI staining based flow cytometry analysis (reference value: 24.1%); type: toxicity, cell-based
# [9] = tested on: Neutrophil; experiment: Induction of apoptosis in mouse neutrophils assessed as early apoptotic cells at 40 uM incubated for 16 hrs by Annexin V-FITC/PI staining based flow cytometry analysis (reference value: 25.9%); type: toxicity, cell-based
# [10] = Oral bioavailability in Sprague-Dawley rat; type: ADME, organism-based; conditions: in vivo
# [11] = tested on: Candida albicans; experiment: Induction of neutrophil-mediated antifungal immunity against Candida albicans SC5314 infected in cyclophosphamide-induced immunosuppressed C57BL/6 mouse at 100 mg/kg, po pretreated with CTX for 3 days followed by fungal infection and further administered with compound once a day for 3 days; type: functional, organism-based; conditions: time 3.0 day
# [12] = tested on: Neutrophil; experiment: Induction of apoptosis in mouse neutrophils assessed as early apoptotic cells at 20 uM incubated for 16 hrs by Annexin V-FITC/PI staining based flow cytometry analysis (reference value: 25.9%); type: toxicity, cell-based
# [13] = tested on: Candida albicans; experiment: Induction of neutrophil-mediated antifungal immunity against Candida albicans SC5314 infected in mouse assessed as reduction in fungal burden in kidneys at 100 mg/kg, po administered once a day for 3 days; type: functional, organism-based; conditions: time 3.0 day
# [14] = Induction of apoptosis in mouse neutrophils assessed as live cells at 40 uM incubated for 16 hrs by Annexin V-FITC/PI staining based flow cytometry analysis (reference value: 48.5%); type: toxicity, cell-based, Neutrophil; conditions: read-out: Activity
# [15] = tested on: Candida albicans; experiment: Antifungal activity against Candida albicans SC5314 assessed as inhibition of fungal growth at 0.25 to 128 ug/ml measured every 3 hrs for 24 hrs by absorbance based analysis; type: functional, organism-based; conditions: dose 0.25-128 µg/ml
# [16] = tested on: Candida albicans; experiment: Induction of neutrophil-mediated antifungal immunity against Candida albicans SC5314 infected in mouse assessed as increase in animal survival rate at 100 mg/kg, po administered once a day for 3 days; type: functional, organism-based; conditions: time 3.0 day
# [17] = molecular target: Signal transducer and activator of transcription 3 (Mus musculus) (UniProt P42227); experiment: Inhibition of biotinylated ACT001 probe binding to STAT3 in mouse bone marrow neutrophils at 100 uM by pulldown based Western blot analysis; type: cell-based; conditions: Neutrophil
# Chain of Signal transducer and activator of transcription 3 (Mus musculus) (P42227 whole entry): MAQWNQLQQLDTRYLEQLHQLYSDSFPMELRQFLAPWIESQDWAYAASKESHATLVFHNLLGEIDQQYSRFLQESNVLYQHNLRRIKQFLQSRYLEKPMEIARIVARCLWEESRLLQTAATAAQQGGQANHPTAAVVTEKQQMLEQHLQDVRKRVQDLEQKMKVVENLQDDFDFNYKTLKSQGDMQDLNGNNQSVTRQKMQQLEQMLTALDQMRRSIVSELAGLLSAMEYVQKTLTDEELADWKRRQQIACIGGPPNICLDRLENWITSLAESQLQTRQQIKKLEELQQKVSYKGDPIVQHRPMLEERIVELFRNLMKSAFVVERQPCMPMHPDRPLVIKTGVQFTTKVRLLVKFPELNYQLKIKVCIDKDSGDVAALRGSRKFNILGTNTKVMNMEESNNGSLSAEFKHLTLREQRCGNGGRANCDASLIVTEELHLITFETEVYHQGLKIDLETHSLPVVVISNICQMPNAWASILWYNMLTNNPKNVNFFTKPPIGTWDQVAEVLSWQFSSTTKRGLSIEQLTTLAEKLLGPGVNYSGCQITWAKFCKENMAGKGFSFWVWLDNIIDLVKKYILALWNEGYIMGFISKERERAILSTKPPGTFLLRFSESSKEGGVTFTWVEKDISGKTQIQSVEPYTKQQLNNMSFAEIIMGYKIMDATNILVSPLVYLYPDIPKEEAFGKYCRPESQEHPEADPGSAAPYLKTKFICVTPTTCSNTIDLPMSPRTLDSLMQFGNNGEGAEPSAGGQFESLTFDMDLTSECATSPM
# [18] = tested on: Neutrophil; experiment: Induction of apoptosis in mouse neutrophils assessed as dead cells at 40 uM incubated for 16 hrs by Annexin V-FITC/PI staining based flow cytometry analysis (reference value: 1.58%); type: toxicity, cell-based
# [19] = tested on: Neutrophil; experiment: Induction of neutrophil-mediated antifungal immunity against Candida albicans SC5314 infected in mouse assessed as increase in neutrophil infiltration in kidney at 100 mg/kg, po administered once a day for 3 days; type: functional, organism-based; conditions: time 3.0 day
# [20] = tested on: Candida albicans; experiment: Induction of neutrophil-mediated antifungal immunity against Candida albicans SC5314 infected in mouse assessed as inhibition of CXCL1 protein expression in bone marrow at 100 mg/kg, po administered once a day for 3 days by ELISA; type: functional, organism-based; conditions: time 3.0 day
# [21] = tested on: Neutrophil; experiment: Induction of apoptosis in mouse neutrophils assessed as dead cells at 20 uM incubated for 16 hrs by Annexin V-FITC/PI staining based flow cytometry analysis (reference value: 1.58%); type: toxicity, cell-based
# [22] = tested on: Candida albicans; experiment: Induction of neutrophil-mediated antifungal immunity against Candida albicans SC5314 infected in mouse assessed as reduction in accumulation of Ly6G positive neutrophils in bone marrow at 100 mg/kg, po administered once a day for 3 days; type: functional, organism-based; conditions: time 3.0 day
# [23] = tested on: Candida albicans; experiment: Induction of neutrophil-mediated antifungal immunity against Candida albicans SC5314 infected in mouse assessed as reduction in PD-L1 positive Ly6G positive neutrophils in kidney at 100 mg/kg, po administered once a day for 3 days by flow cytometry analysis; type: functional, organism-based; conditions: time 3.0 day
# [24] = AUC (0 to infinity) in Sprague-Dawley rat at 20 mg/kg, iv; type: ADME, organism-based; conditions: in vivo
# [25] = Permeability of compound in PBS/EtOH (70:30) buffer incubated for 12 hrs by PAMPA-BBB assay; type: ADME; conditions: read-out: permeability
# [26] = Cytotoxicity against mouse neutrophils assessed as reduction in cell viability incubated for 16 hrs by flow cytometry analysis; type: toxicity, cell-based, Neutrophil
# [27] = Therapeutic index, ratio of IC50 for cytotoxicity against mouse neutrophils to IC50 for inhibition of fungal curdlan induced PD-L1 expression in mouse neutrophils; type: toxicity; conditions: read-out: Ratio IC50
# [28] = Induction of apoptosis in mouse neutrophils assessed as live cells at 20 uM incubated for 16 hrs by Annexin V-FITC/PI staining based flow cytometry analysis (reference value: 48.5%); type: toxicity, cell-based, Neutrophil; conditions: read-out: Activity
# [29] = Half life in Sprague-Dawley rat; type: ADME; conditions: in vivo
# [30] = tested on: Candida albicans; experiment: Antifungal activity against Candida albicans SC5314 assessed as inhibition of fungal growth measured every 3 hrs for 24 hrs by absorbance based analysis; type: functional, organism-based; conditions: dose 0.25-128 µg/ml
# [31] = tested on: Neutrophil; experiment: as §1; type: toxicity, cell-based; conditions: neutrophil, 40 µM
smiles,measurement,setting,value
CC1=C2CC[C@@](C)(O)[C@@H]2[C@H]2OC(=O)[C@@H](CSc3c(Cl)cccc3Cl)[C@@H]2CC1,inhibition at 40 µM,[1],41.6%
same,viability at 40 µM,[2],57.5%
COc1ccc(SC[C@@H]2C(=O)O[C@H]3[C@H]2CCC(C)=C2CC[C@@](C)(O)[C@@H]23)cc1,inhibition at 40 µM,[1],63.2%
same,viability at 40 µM,[2],88.8%
C[C@@]1(O)CC[C@]23O[C@@]2(C)CC[C@@H]2[C@H](OC(=O)[C@H]2CS(=O)(=O)C2CCCCC2)[C@@H]13,inhibition at 40 µM,[1],65.3%
same,viability at 40 µM,[2],76.2%
CC1=C2CC[C@@](C)(O)[C@@H]2[C@H]2OC(=O)[C@@H](CSc3ccc(Cl)c(Cl)c3)[C@@H]2CC1,inhibition at 40 µM,[1],71.1%
same,viability at 40 µM,[2],86.6%
CC1=C2CC[C@@](C)(O)[C@@H]2[C@H]2OC(=O)[C@@H](CSC3CCCCC3)[C@@H]2CC1,inhibition at 40 µM,[1],15.8%
same,viability at 40 µM,[2],101%
COc1ccc(S(=O)(=O)C[C@@H]2C(=O)O[C@H]3[C@H]2CC[C@]2(C)O[C@@]24CC[C@@](C)(O)[C@H]34)cc1,inhibition at 40 µM,[1],77.4%
same,viability at 40 µM,[2],54.8%
CC(C)CCS(=O)(=O)C[C@@H]1C(=O)O[C@H]2[C@H]1CC[C@]1(C)O[C@@]13CC[C@@](C)(O)[C@H]23,inhibition at 40 µM,[1],60.9%
same,viability at 40 µM,[2],68.7%
C[C@@]1(O)CC[C@]23O[C@@]2(C)CC[C@@H]2[C@H](OC(=O)[C@H]2CS(=O)(=O)c2ccncc2)[C@@H]13,inhibition at 40 µM,[1],65.4%
same,viability at 40 µM,[2],79.4%
CC1=C2CC[C@@](C)(O)[C@@H]2[C@H]2OC(=O)[C@@H](CN(C)C)[C@@H]2CC1 [ACT-001],Activity,[3],Active
same,Activity,[4],25.2%
same,Activity,[5],Active
same,Activity,[6],Active
same,IC50,[7],16.8 µM
same,Activity,[8],29.9%
same,Activity,[9],39.2%
same,bioavailability,[10],50.8%
same,Activity,[11],inactive
same,Activity,[12],35.1%
same,Activity,[13],Active
same,"viability at 16 h, 40 µM",[14],26.6%
same,Activity,[15],inactive
same,Activity,[16],Active
same,inhibition,[17],Active
same,Activity,[18],4.28%
same,Activity,[19],Active
same,Activity,[20],Active
same,Activity,[21],2.62%
same,inhibition at 40 µM,[1],72.8%
same,Activity,[22],Active
same,Activity,[23],Active
same,AUC(0-inf),[24],5.54 µg·h/mL
same,Papp at 12 h,[25],47 nm/s
same,IC50 at 16 h,[26],29.3 µM
same,selectivity ratio,[27],1.7
same,"viability at 16 h, 20 µM",[28],37.1%
same,half-life,[29],1.12 h
same,viability at 40 µM,[2],27.6%
CC1=C2CC[C@@](C)(O)[C@@H]2[C@H]2OC(=O)[C@@H](CSc3ccncc3)[C@@H]2CC1,inhibition at 40 µM,[1],72.5%
same,viability at 40 µM,[2],57.2%
OC(Cn1cncn1)(Cn1cncn1)c1ccc(F)cc1F,Activity,[30],Dose-Dependent Effect
CC1=C2CC[C@@](C)(O)[C@@H]2[C@H]2OC(=O)[C@@H](C[S+]([O-])c3ccc(Cl)cc3Cl)[C@@H]2CC1 (stereo in doubt; 22b),inhibition (INH),[1]; 40 µM,47.66%
same,Activity,[31],21.1%
CC1=C2CC[C@@](C)(O)[C@@H]2[C@H]2OC(=O)[C@@H](C[S+]([O-])c3ccc(Cl)cc3Cl)[C@@H]2CC1 (stereo in doubt; 22a),inhibition at 40 µM,[1],64.8%
same,Activity,[31],74.28%
CC1=C2CC[C@@](C)(O)[C@@H]2[C@H]2OC(=O)[C@@H](CS(=O)(=O)C3CCCCC3)[C@@H]2CC1,inhibition at 40 µM,[1],49.5%
same,viability at 40 µM,[2],66.3%
